Assay results: patent US20130102595A1 (Curis, Inc., priority 2011, published 2013)

Key:
[1] = test system: HDACs (HeLa cell nuclear extracts); assay: HDAC enzymatic activity, Biomol Color de Lys system; format: biochemical; settings: 1 hour, 25° C.
Experimental: (E) an In Vitro Assay which Determines the Ability of a Test Compound to Inhibit HDAC Enzymatic Activity.
HDAC inhibitory activity was assessed using the Biomol Color de Lys system (AK-500, Biomol, Plymouth Meeting, Pa.). Briefly, HeLa cell nuclear extracts were used as a source of HDACs. Different concentrations of test compounds were serially diluted in dimethylsulphoxide (DMSO) and added to HeLa cell nuclear extracts in the presence of a colorimetric artificial substrate. Final assay condition contained 50 mM Tris/Cl, pH 8.0, 137 mM NaCl, 2.7 mM KCl and 1 mM MgCl2. Reactions were carried in room temperature (25° C.) for 1 hour before addition of developer for termination. Relative enzyme activity was measured in the WALLAC Victor II 1420 microplate reader as fluorescence intensity (excitation: 350-380 nm; emission: 440-460 nm). Data were analyzed using GraphPad Prism (v4.0a) with a sigmoidal dose response curve fitting for IC50 calculation.

PI3Kα (p110α/p85α) = target: T1, PI3Kα (p110α/p85α) (Homo sapiens, UniProt P42336); assay: PI3Kα ADP-Glo assay; format: biochemical; settings: 20 μM PIP2, 10 μM ATP, 30 minutes
T1 construct: GST (N); made in house; host or cells: Baculovirus-infected Sf9 cells
T1 sequence (P42336 whole entry): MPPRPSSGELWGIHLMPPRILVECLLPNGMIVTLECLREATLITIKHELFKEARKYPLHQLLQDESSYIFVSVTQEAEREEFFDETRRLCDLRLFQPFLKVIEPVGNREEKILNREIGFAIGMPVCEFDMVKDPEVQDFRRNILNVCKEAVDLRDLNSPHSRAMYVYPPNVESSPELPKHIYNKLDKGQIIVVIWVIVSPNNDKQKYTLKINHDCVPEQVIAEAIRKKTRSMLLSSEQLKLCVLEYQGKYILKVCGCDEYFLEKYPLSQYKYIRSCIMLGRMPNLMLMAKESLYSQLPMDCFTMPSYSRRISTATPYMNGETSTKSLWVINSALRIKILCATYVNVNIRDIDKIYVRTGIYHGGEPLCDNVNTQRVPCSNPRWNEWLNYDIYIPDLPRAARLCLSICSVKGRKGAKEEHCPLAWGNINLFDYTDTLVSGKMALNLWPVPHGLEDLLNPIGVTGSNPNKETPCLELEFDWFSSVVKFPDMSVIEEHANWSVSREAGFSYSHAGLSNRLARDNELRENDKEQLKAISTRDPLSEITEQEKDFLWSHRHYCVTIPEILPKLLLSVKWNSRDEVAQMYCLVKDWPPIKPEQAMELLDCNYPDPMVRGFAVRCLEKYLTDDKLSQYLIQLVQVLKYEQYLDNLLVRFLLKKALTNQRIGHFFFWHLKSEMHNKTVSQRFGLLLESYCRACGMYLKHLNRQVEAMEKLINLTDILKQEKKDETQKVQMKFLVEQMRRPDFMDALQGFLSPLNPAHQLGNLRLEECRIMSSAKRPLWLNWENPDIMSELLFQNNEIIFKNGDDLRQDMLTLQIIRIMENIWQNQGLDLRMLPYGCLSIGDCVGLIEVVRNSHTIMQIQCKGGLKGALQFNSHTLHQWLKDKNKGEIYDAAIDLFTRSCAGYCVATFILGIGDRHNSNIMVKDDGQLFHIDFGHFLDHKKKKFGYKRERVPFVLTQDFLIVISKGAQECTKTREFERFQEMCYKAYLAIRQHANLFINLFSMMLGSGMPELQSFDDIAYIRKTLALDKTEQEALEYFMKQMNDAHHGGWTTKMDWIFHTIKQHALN
T1 sequence (P27986 whole entry partner): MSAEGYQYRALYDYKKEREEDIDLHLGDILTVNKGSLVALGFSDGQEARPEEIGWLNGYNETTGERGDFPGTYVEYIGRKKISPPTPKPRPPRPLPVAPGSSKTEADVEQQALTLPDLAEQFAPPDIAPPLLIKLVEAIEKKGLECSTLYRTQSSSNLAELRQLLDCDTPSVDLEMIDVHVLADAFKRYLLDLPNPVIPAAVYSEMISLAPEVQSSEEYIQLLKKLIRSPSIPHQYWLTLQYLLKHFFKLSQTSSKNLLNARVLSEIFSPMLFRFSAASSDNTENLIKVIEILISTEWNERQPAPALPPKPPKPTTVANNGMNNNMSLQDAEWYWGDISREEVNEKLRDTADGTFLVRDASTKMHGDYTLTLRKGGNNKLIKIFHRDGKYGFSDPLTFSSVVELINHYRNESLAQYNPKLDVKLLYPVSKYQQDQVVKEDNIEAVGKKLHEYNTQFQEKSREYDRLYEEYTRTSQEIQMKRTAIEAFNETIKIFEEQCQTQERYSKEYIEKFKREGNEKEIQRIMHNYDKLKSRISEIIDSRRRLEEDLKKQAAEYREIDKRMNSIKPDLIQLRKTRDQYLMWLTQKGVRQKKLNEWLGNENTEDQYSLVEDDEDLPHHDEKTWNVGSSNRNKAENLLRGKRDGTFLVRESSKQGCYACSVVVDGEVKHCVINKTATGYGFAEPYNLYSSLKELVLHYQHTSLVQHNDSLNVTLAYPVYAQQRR
Experimental: (A) an In Vitro Assay which Determines the Ability of a Test Compound to Inhibit PI3Kα.
Activity of PI3Kα was measured using ADP-Glo assay from Promega. PI3Kα, a complex of N-terminal GST-tagged recombinant full-length human p110α (GenBank, Accession No. U79143) and N-terminal His tagged recombinant full length human p85a (GenBank Accession No. XM—043865) were co-expressed in a Baculovirus infected Sf9 cell expression system. The ADP-Glo assay was performed to measure the amount of ADP generated from ATP hydrolysis coupled with PIP2 phosphorylation by the purified recombinant PI3Kα (p110α/p85α). PI3Kα was incubated with 20 μM PIP2 substrate in the reaction buffer (50 mM HEPES, pH 7.4, 150 mM NaCl, 5 mM MgCl2, 1 mM DTT, 3 uM Naorthovanadate, 10 μM ATP and 0.5% DMSO) for 30 minutes at room temperature. The ADP generated was then detected by ADP-Glo assay from Promega, a luminescent ADP detection assay. The ADP-Glo assay is performed in two steps; first, after the kinase reaction, ADP-Glo Reagent is added to terminate the kinase reaction and deplete the remaining ATP. Second, the Kinase Detection Reagent is added to simultaneously convert ADP to ATP and allow the newly synthesized ATP to be measured using a luciferase/luciferin reaction.

| IC50 [1] [nM] | IC50 (PI3Kα (p110α/p85α)) [nM] | SMILES |
| --- | --- | --- |
| < 100 | > 10000 | CS(=O)(=O)N1CCN(Cc2cc3nc(-c4cccc5c4cnn5CCCCCCC(=O)NO)nc(N4CCOCC4)c3s2)CC1 [Compound 5, N-hydroxy-7-(4-(6-((4-(methylsulfonyl)piperazin-1-yl)methyl)-4-morpholinothieno[3,2-d]pyrimidin-2-yl)-1H-indazol-1-yl)heptanamide] |
| < 100 | 100 to 1000 | O=C(CCCCNc1cc2nc(-c3cccc4[nH]ncc34)nc(N3CCOCC3)c2s1)NO [Compound 18] |
| < 100 | 100 to 1000 | O=C(CCCCCNc1cc2nc(-c3cccc4[nH]ncc34)nc(N3CCOCC3)c2s1)NO [Compound 19] |
| < 100 | 100 to 1000 | O=C(CCCCCCNc1cc2nc(-c3cccc4[nH]ncc34)nc(N3CCOCC3)c2s1)NO [Compound 20] |
|  | > 10000 | CS(=O)(=O)N1CCN(Cc2cc3nc(-c4cccc5[nH]ncc45)nc(NCCCCC(=O)NO)c3s2)CC1 [Compound 34] |
|  | > 10000 | CS(=O)(=O)N1CCN(Cc2cc3nc(-c4cccc5[nH]ncc45)nc(NCCCCCC(=O)NO)c3s2)CC1 [Compound 35] |
|  | > 10000 | CS(=O)(=O)N1CCN(Cc2cc3nc(-c4cccc5[nH]ncc45)nc(NCCCCCCC(=O)NO)c3s2)CC1 [Compound 36] |
| > 10000 | < 100 | O=C(NO)c1cc2nc(-c3cccc4[nH]ncc34)nc(N3CCOCC3)c2s1 [Compound 45] |
| 1000 to 10000 | 100 to 1000 | O=C(/C=C/c1cc2nc(-c3cccc4[nH]ncc34)nc(N3CCOCC3)c2s1)NO [Compound 46] |
| < 100 | < 100 | O=C(NO)c1cnc(N2CCC(CNc3cc4nc(-c5cccc6[nH]ncc56)nc(N5CCOCC5)c4s3)CC2)nc1 [Compound 48] |
| 100 to 1000 | < 100 | CN(CC1CCN(c2ncc(C(=O)NO)cn2)CC1)c1cc2nc(-c3cccc4[nH]ncc34)nc(N3CCOCC3)c2s1 [Compound 49] |
| < 100 | < 100 | O=C(/C=C/c1ccc(S(=O)(=O)Nc2cc3nc(-c4cccc5[nH]ncc45)nc(N4CCOCC4)c3s2)cc1)NO [Compound 50] |
| 100 to 1000 | < 100 | O=C(NO)c1cnc(N2CCN(S(=O)(=O)c3cc4nc(-c5cccc6[nH]ncc56)nc(N5CCOCC5)c4s3)CC2)nc1 [Compound 51] |
| < 100 | > 10000 | CN(Cc1cc2nc(-c3cccc4[nH]ncc34)nc(N3CCNCC3)c2s1)c1ncc(C(=O)NO)cn1 [Compound 60] |
| < 100 | > 10000 | CN1CCN(c2nc(-c3cccc4[nH]ncc34)nc3cc(CN(C)c4ncc(C(=O)NO)cn4)sc23)CC1 [Compound 61] |
| < 100 | > 10000 | CC(=O)N1CCN(c2nc(-c3cccc4[nH]ncc34)nc3cc(CN(C)c4ncc(C(=O)NO)cn4)sc23)CC1 [Compound 62] |
| < 100 | > 10000 | CN(Cc1cc2nc(-c3cccc4[nH]ncc34)nc(N3CCN(CCO)CC3)c2s1)c1ncc(C(=O)NO)cn1 [Compound 63] |
| < 100 | 100 to 1000 | CC1CN(c2nc(-c3cccc4[nH]ncc34)nc3cc(CN(C)c4ncc(C(=O)NO)cn4)sc23)CC(C)O1 (stereo not drawn) [Compound 65] |
| < 100 | 100 to 1000 | CC1COCC(C)N1c1nc(-c2cccc3[nH]ncc23)nc2cc(CN(C)c3ncc(C(=O)NO)cn3)sc12 (stereo not drawn) [Compound 66] |
| < 100 | 100 to 1000 | CN(Cc1cc2nc(-c3cccc4[nH]ncc34)nc(N3CCCCC3)c2s1)c1ncc(C(=O)NO)cn1 [Compound 67] |
| < 100 | 100 to 1000 | Cc1c(CN(C)c2ncc(C(=O)NO)cn2)sc2c(N3CCOCC3)nc(-c3cccc4[nH]ncc34)nc12 [Compound 68] |
| < 100 | 100 to 1000 | CC(C)(Nc1ncc(C(=O)NO)cn1)c1cc2nc(-c3cccc4[nH]ncc34)nc(N3CCOCC3)c2s1 [Compound 71] |
| < 100 | 100 to 1000 | O=C(NO)c1cnc(NCc2cc3cc(-c4cccc5[nH]ncc45)nc(N4CCOCC4)c3s2)nc1 [Compound 73] |
| < 100 | 100 to 1000 | CN(Cc1cc2cc(-c3cccc4[nH]ncc34)nc(N3CCOCC3)c2s1)c1ncc(C(=O)NO)cn1 [Compound 74] |
